ChEMBL document CHEMBL1201862, “PubChem BioAssay data set” (2004)
Calls of active or inactive are those of the source.

Tests used:
[1] = Luminescence Cell-Based Dose Response HTS to Identify Inhibitors of 5'UTR Stem-Loop Driven Prion Protein mRNA Translation in H4 Neuroglioblastoma Cells. [Related pubchem assays: 1827 (Project Summary), 1813 (Primary HTS)]; assay type: functional
[2] = inhibitors of SNCA 5'UTR-driven reporter translation, confirmation, H4 neuroglioma cells, luminescence (AID 1988); assay type: functional, cell-based
[3] = inhibitors of firefly luciferase expression or activity, dose response, H4 neuroglioma cells, luminescence (AID 1990); assay type: functional, cell-based
Melanocortin receptor 4 = Melanocortin receptor 4 (Homo sapiens, UniProt P32245); assay type: functional, cell-based;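 note: Cell-based assay with luminescence read-out, confirmatory dose-response testing for agonist activity of biased ligands at MC4R; human U2OS cells with tagged receptor and beta-arrestin; potency of agonists that increase receptor coupling to beta-arrestin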
Chain of Melanocortin receptor 4 (P32245 whole entry): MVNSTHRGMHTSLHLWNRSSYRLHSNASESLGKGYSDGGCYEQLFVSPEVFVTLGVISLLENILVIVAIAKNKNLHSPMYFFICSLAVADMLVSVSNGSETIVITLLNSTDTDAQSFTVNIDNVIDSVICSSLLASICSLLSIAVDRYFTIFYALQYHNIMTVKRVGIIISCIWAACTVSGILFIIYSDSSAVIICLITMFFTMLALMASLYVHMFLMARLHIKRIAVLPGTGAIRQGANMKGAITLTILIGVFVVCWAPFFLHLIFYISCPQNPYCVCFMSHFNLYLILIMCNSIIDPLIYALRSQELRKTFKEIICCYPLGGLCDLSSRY

[4] = target: T1, Low molecular weight phosphotyrosine protein phosphatase (Homo sapiens, UniProt P24666); assay type: functional; conditions: read-out: IC50_Mean;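 note: Dose-response confirmation assay measuring inhibition of LMPTP enzyme activity by fluorescence intensity read-out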
T1 sequence (P24666 whole entry): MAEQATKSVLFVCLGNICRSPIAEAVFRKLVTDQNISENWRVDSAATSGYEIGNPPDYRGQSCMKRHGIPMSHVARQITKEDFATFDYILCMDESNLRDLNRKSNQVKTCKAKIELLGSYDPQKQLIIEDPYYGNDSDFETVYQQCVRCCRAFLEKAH

[5] = target: T2, Adenosylmethionine-8-amino-7-oxononanoate aminotransferase (Mycobacterium tuberculosis, UniProt P9WQ81); assay: Mycobacterium tuberculosis BioA enzyme inhibitor Measured in Biochemical System Using Plate Reader - 2163-02_Inhibitor_Dose_CherryPick_Activity.; assay type: functional, Mycobacterium tuberculosis UT205
T2 sequence (P9WQ81 whole entry): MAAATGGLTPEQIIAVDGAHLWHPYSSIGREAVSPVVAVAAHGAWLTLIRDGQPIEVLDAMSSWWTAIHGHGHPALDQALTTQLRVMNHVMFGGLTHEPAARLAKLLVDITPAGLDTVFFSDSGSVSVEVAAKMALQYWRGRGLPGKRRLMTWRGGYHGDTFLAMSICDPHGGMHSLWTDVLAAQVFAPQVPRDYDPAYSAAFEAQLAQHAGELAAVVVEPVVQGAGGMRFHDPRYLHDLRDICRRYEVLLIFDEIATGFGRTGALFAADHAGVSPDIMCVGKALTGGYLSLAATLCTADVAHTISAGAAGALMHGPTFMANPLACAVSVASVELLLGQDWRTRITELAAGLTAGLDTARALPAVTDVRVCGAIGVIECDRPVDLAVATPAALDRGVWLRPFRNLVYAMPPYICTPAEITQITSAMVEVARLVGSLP

[6] = target: Photoreceptor-specific nuclear receptor (Homo sapiens, UniProt Q9Y5X4); assay type: functional, cell-based;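 note: CHO-S cells with Gal4-NCOR and VP16-NR2E3 two-hybrid luciferase reporter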
Chain of Photoreceptor-specific nuclear receptor (Q9Y5X4 whole entry, the tested form may be a part): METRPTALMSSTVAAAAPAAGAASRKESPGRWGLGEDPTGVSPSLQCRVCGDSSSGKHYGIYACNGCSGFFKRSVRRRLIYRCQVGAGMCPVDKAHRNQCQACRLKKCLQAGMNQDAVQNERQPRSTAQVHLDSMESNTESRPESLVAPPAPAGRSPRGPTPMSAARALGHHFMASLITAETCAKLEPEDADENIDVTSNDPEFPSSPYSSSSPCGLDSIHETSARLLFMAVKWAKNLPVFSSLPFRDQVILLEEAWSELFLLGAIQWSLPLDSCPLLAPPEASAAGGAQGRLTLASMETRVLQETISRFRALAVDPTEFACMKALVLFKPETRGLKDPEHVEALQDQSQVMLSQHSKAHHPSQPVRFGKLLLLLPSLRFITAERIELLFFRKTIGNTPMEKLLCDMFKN

Vero = Vero cell cytotoxicity, cytotoxicity control for flavivirus capping enzyme inhibitors (AID 588742); assay type: functional; conditions: Chlorocebus sabaeus
[7] = cytotoxicity in MIN6 insulinoma cells, dose response, cytotoxicity control, cell-based, mouse insulinoma (AID 2122); assay type: functional;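 note: confirmatory high-throughput counterscreen run to flag cytotoxic compounds; mouse MIN-6 beta cells carrying an insulin promoter eGFP reporter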
[8] = insulin promoter down-regulators in MIN6 cells, imaging, high-content screening, mouse beta cells (AID 1628); assay type: functional
[9] = HEp-2 cell cytotoxicity, dose response, cytotoxicity control for RSV inhibitor project, HTS (AID 2410); assay type: functional; conditions: human respiratory syncytial virus
[10] = microbe, parasite or virus in culture; assay type: functional; conditions: Mycobacterium tuberculosis
[11] = target: T3, Endoribonuclease toxin MazF (Escherichia coli K-12, UniProt P0AE70); assay: MazF toxin RNase activators, dose response, biochemical, fluorescence, single-stranded RNA substrate, uHTS hits (AID 588481); assay type: functional
T3 sequence (P0AE70 whole entry): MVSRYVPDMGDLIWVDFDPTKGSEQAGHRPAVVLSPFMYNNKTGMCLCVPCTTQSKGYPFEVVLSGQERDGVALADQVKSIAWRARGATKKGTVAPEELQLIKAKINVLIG

[12] = target: T3, Endoribonuclease toxin MazF; assay: fluorescent RNA oligo signal without MazF, dose response, counter-screen for MazEF activator project, biochemical, fluorescence, single-stranded RNase substrate (AID 588502); assay type: functional
ORF 73 = target: T4, ORF 73 (Human herpesvirus 8, UniProt O40947); assay: inhibitors of C-LANA binding to LBS DNA, dose response, biochemical, fluorescence polarization, cherry-picked samples (AID 504725); parameters: species or system Human gammaherpesvirus 8;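 note: fluorescence polarization of a labeled DNA duplex reporting LANA DNA binding; potency is for inhibitors that block LANA binding to the DNA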
T4 sequence (O40947 whole entry): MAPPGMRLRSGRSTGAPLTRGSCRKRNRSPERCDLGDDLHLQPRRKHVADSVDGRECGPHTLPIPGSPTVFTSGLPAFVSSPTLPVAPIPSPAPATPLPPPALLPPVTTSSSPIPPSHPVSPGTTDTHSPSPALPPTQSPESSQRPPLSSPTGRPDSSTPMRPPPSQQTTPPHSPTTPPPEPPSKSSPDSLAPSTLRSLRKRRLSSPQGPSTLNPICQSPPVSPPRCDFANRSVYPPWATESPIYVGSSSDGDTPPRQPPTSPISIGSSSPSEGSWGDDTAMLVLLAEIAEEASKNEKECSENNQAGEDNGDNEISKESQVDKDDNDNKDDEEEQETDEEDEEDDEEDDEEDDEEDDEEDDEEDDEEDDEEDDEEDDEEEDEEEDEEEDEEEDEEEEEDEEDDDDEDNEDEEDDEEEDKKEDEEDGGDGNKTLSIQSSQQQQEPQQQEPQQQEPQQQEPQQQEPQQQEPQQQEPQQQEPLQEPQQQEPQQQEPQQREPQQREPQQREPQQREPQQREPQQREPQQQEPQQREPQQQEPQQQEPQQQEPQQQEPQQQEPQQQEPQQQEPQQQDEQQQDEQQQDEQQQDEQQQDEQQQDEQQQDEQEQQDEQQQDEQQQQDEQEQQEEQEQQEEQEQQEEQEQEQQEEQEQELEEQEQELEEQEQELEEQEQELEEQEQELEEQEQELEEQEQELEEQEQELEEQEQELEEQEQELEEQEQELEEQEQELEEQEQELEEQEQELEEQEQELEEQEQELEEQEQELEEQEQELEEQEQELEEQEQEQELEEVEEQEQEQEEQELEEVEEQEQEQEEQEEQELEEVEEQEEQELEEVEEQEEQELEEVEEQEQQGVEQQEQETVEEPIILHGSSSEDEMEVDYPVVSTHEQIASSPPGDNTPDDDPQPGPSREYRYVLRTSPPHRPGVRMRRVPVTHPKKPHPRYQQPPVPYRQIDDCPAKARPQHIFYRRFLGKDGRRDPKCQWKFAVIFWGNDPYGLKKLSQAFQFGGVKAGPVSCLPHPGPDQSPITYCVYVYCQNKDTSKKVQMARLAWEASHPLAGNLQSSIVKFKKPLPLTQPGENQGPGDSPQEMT

INS1 = assay: beta cell apoptosis inhibitors, cytokine rescue, dose response, luminescence, retest (AID 449756); assay type: functional, cell-based; conditions: Rattus norvegicus;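 note: cell death triggered by IL-1 beta plus TNF-alpha plus IFN-gamma mixture; protective hits raise ATP signal compared with cytokine alone wells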
[13] = target: T5, Histone-lysine N-methyltransferase NSD2 (Homo sapiens, UniProt O96028); assay type: biochemical
T5 sequence (O96028 whole entry): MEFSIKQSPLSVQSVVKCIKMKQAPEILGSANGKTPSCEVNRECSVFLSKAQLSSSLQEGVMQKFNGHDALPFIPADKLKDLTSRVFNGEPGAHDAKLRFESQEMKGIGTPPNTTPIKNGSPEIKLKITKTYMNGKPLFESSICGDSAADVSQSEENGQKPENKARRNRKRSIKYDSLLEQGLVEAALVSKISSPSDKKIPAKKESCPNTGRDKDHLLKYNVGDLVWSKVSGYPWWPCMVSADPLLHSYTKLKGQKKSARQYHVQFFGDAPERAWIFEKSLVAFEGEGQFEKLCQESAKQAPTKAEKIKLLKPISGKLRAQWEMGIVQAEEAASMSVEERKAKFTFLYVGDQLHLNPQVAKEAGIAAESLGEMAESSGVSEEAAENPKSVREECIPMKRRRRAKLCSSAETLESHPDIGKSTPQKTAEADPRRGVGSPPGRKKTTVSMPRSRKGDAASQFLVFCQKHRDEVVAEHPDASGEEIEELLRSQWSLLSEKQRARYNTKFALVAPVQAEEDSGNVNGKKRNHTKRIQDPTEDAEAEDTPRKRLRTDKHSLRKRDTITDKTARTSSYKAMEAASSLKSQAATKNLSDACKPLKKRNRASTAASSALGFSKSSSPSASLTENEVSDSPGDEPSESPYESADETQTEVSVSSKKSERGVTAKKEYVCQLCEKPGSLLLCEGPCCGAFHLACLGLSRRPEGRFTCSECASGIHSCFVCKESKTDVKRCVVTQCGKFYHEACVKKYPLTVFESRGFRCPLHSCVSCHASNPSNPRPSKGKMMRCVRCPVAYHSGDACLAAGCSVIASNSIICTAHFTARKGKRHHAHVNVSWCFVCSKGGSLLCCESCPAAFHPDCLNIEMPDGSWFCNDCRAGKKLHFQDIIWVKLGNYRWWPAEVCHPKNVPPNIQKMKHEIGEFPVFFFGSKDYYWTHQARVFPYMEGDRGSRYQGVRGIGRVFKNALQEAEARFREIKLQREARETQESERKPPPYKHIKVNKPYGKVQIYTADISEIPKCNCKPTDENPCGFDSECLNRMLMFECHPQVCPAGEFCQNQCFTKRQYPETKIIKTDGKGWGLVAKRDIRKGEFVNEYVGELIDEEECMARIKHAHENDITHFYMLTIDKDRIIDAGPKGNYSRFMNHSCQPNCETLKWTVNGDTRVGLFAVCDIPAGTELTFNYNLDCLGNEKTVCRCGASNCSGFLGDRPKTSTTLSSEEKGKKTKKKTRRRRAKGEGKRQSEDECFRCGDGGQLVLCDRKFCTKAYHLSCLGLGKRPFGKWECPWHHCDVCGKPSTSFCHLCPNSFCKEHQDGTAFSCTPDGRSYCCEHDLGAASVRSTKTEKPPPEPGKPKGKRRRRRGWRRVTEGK

Protein Wnt-3a = Protein Wnt-3a (Mus musculus, UniProt P27467); assay: Wnt3a-driven reporter signaling inhibition, dose response, selectivity assay for Gli-SUFU antagonist project, Wnt-LIGHT cells, luminescence (AID 651570); assay type: functional; conditions: read-out: IC50_Mean;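 note: Wnt-LIGHT reporter cells stimulated with conditioned medium from Wnt3a-producing cells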
Chain of Protein Wnt-3a (P27467 whole entry): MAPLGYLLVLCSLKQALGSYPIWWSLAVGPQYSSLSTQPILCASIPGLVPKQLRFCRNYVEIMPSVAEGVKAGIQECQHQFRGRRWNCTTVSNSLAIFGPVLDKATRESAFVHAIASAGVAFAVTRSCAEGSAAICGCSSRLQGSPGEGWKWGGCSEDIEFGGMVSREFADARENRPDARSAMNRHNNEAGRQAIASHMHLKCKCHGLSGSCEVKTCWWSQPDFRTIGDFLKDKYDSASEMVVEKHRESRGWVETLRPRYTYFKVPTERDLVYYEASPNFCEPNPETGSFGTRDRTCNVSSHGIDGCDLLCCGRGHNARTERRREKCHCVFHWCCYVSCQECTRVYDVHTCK

Genome polyprotein = Genome polyprotein (dengue virus type 2, UniProt P29990); assay: Dengue-2 NS5 methyltransferase inhibitors, primary screen, biochemical, confirmation dose response (AID 588689); assay type: functional
Chain of Genome polyprotein (P29990 2492-3391 limits assumed): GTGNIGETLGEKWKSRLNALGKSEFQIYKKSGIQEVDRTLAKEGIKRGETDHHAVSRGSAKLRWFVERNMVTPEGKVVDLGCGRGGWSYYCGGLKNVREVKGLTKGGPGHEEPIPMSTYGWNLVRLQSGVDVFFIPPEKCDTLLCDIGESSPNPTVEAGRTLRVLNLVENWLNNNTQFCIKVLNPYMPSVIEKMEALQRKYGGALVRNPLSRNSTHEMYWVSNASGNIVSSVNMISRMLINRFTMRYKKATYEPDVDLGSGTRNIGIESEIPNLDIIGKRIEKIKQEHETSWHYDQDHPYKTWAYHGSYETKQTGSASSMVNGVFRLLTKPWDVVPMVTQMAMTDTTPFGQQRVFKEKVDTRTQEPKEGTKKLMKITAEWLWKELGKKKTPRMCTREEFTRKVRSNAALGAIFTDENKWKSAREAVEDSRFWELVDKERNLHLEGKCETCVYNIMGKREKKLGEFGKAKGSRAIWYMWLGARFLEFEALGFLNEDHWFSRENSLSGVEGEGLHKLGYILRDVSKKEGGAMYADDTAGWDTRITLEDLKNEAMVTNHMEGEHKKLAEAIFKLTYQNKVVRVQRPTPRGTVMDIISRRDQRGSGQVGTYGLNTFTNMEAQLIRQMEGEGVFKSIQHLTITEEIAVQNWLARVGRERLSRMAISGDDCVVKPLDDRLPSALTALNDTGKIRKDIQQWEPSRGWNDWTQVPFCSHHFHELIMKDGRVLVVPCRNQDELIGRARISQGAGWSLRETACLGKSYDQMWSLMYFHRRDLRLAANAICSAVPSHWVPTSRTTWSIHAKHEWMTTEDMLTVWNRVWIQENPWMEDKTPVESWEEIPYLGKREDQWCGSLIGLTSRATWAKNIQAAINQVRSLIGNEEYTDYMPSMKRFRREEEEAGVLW

## COc1ccc(-c2csc(C3=C(N)N(Cc4ccc(Cl)cc4)CC3=O)n2)cc1OC
[1]
  EC50: 32.9 µM (active)
[2]
  EC50: 85.3 µM (active)
[3]
  EC50: > 120 µM (not active)
Melanocortin receptor 4
  EC50: > 89.2 µM (inactive)

## COc1ccc(-c2cc(C(=O)Nc3cc(Cl)ccc3O)no2)cc1
[4]
  IC50: 2.91 µM (active)

## CC(=O)N1CCN(c2ccc([N+](=O)[O-])cc2C=C2C(=O)NC(=O)NC2=O)CC1
[5]
  AC50: 8.51 µM (active)

## CC(=O)O[C@]1(C(C)=O)CC[C@H]2[C@@H]3C=C(C)C4=CC(=O)CC[C@]4(C)[C@H]3CC[C@@]21C [MEGESTROL ACETATE]
[5]
  AC50: 11 µM (active)

## COc1ccc(NC2c3ccccc3C(=O)N2Cc2ccccc2Cl)cc1OC (configuration not stated)
[6]
  IC50: 1.5 µM (active)

## COc1ccc(NC(=O)Nc2nnc(-c3ccccc3SCc3ccccc3)s2)cc1
Melanocortin receptor 4
  EC50: > 89.2 µM (inactive)

## C=CCn1c(=S)[nH]c2scc(-c3ccc(C)o3)c2c1=O
Vero
  CC50: 37.2 µM (active)

## C/C(=N\Nc1cc(N2CCOCC2)nc(C)n1)c1cccc([N+](=O)[O-])c1
[7]
  IC50: 3.14 µM (active)
[8]
  IC50: 1.98 µM (active)

## Cc1n[nH]c(O)c1C(c1ccc(-c2ccc(Cl)c(Cl)c2)o1)c1c(C)n[nH]c1O
[9]
  CC50: 15.2 µM (active)
[10]
  CC50: 28.1 µM (active)
Vero
  CC50: 20.8 µM (active)

## COc1cc(NC(=O)Nc2nc(C(N)Cc3ccc(C(F)(F)F)cc3)cs2)cc(OC)c1OC (configuration not stated)
Melanocortin receptor 4
  EC50: > 89.2 µM (inactive)

## CCOC(=O)CSc1nc2cc(OC)ccc2cc1C#N
[11]
  EC50: > 99 µM (inactive)
[12]
  EC50: > 99 µM (inactive)

## COCCN(CCOC)Cc1c(O)ccc2c1O/C(=C\c1ccco1)C2=O
ORF 73
  AC50: 11.9 µM (active)

## CN1/C(=C\C(=O)COC(=O)c2ccc(O)c(O)c2)C(C)(C)c2ccccc21
INS1
  AC50: 6.68 µM (active)
[7]
  IC50: 0.454 µM (active)
[8]
  IC50: 0.784 µM (active)
[13]
  AC50: > 20 µM (inactive)

## O=C(N[C@H]1C/C=C\C[C@@H](CC(=O)N(CCO)Cc2ccccc2)C(=O)N[C@H](Cc2c[nH]c3ccccc23)COC1=O)OCC1c2ccccc2-c2ccccc21
Protein Wnt-3a
  IC50: 17.8 µM (active)

## O=S(=O)(c1ccc2c(c1)nc(COc1ccc(Cl)cc1)n2CC1CCCO1)N1CCOCC1 (configuration not stated)
[1]
  EC50: > 120 µM (not active)
[2]
  EC50: 15.8 µM (active)
[3]
  EC50: 19.6 µM (active)
Protein Wnt-3a
  IC50: 4.1 µM (active)

## O=C(OC(c1ccccc1)c1nccc2ccccc12)c1ccccc1 (configuration not stated)
[6]
  IC50: 36.1 µM (inactive)

## Cc1cccc(NC(S)=NC(C)(C)CC(C)(C)C)c1
[7]
  IC50: 1.87 µM (active)
[8]
  IC50: 1.92 µM (active)

## Cc1nc(=O)c(-c2ccccc2)c(C)n1-c1ccc(Br)cc1
[5]
  AC50: 15.6 µM (active)

## CCCCC[C@@H]1C=C(C(=O)O)[C@H](c2ccc(Cl)cc2)N1S(=O)(=O)c1ccc(C)cc1
Genome polyprotein
  IC50: 42.3 µM (active)
Vero
  CC50: > 40 µM (active)

## COc1ccccc1CN(Cc1nc(O)c2ccccc2n1)S(=O)(=O)c1ccc(C)cc1
Protein Wnt-3a
  IC50: 32.7 µM (inactive)

## COc1ccc(NC(=S)N(CCCN2CCCC2)Cc2cccn2Cc2ccc(Cl)cc2)cc1Cl
[7]
  IC50: 3.27 µM (active)
[8]
  IC50: 2.89 µM (active)
